The source of these data is PubChem BioAssay AID732 (Emory University Molecular Libraries Screening Center, 2007).

Calls of active or inactive are those of the source. No rule for the calls is given here.

The test system of the assay is in vivo angiogenesis, blood vessel count. Kind of assay: reduction of blood vessel formation in vivo – HTS, in vivo study (AID 732).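 Also: zebrafish embryos dosed at one day post fertilization; 0% = reference inhibitor and 100% = plate mean.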 The note with it: stronger effect = lower value;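 tested at 30 µM in the well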.
Turning to `C/C(O)=C(\C#N)C(=O)Nc1cc(Br)ccc1Br`, the vessel count % control is 139% (inactive). Regarding `O=S(=O)(c1cccc2c(Cl)cccc12)N1CCCNCC1`, the vessel count % control is 109% (inactive). For the molecule `NC(CP(=O)(O)O)C(=O)O` (centres undefined), the vessel count % control was 103% (inactive). For the molecule `CC[N+](CC)(CC)CC`, the vessel count % control was 112% (inactive). As for `COc1cccc(OC)c1OCCNCC1CSc2ccccc2O1` (centres undefined), the vessel count % control is 71.1% (inactive).

For `CN(C)c1nc(N)c(C(=O)N=C(N)N)nc1Cl`, the vessel count % control is 106% (inactive).

`Nc1nc2c(ncn2COCCO)c(=O)[nH]1`: the vessel count % control was 110% (inactive). Consider `N=C(N)SCCc1cnc[nH]1`, for which the vessel count % control is 150% (inactive). `CC(C)NCC(O)COc1cccc2[nH]ccc12` (centres undefined): the vessel count % control is 90.8% (inactive).

As for `CCCCCCC/C=C\CCCCCCCCC(=O)O`, the vessel count % control is 106% (inactive). For `CC(CN1c2ccccc2Sc2ccccc21)N(C)C` (centres undefined) the value was 97.7% (inactive); for `CN1C(C(=O)Nc2ccccn2)=C(O)c2ccccc2S1(=O)=O`, 110% (inactive); for `CCN(CC)CCNC(=O)c1ccc(NC(C)=O)cc1`, 117% (inactive).

As to `C#CCn1c(=O)c2c(ncn2C)n(C)c1=O`, the vessel count % control was 103% (inactive). Regarding `NNC(N)=O`, the vessel count % control was 126% (inactive). In the case of `Nc1nc(N)c2nc(CNc3ccc(C(=O)NC(CCC(=O)O)C(=O)O)cc3)cnc2n1` (centres undefined), the vessel count % control is 99.6% (inactive).

As for `CC(C)c1ccc2c(c1)c(SC(C)(C)C)c(CC(C)(C)C(=O)O)n2Cc1ccc(Cl)cc1`, the vessel count % control was 99.4% (inactive). Take `COc1ccc(CCN(C)CCc2ccc(OC)c(OC)c2)cc1OC`: the vessel count % control is 101% (inactive). Turning to `CC1=C(CC(=O)O)c2cc(F)ccc2/C1=C\c1ccc(S(C)=O)cc1` (centres undefined), the vessel count % control was 89.8% (inactive). As for `NC1CONC1=O` (centres undefined), the vessel count % control was 117% (inactive). For `Cc1c(CC(C)(C)C(=O)O)n(Cc2ccc(Cl)cc2)c2ccc(F)cc12`, the vessel count % control was 127% (inactive).

With `NCCS(=O)(=O)O`, the vessel count % control was 96.7% (inactive). As to `Nc1nc2ccc(OC(F)(F)F)cc2s1`, the vessel count % control is 77% (inactive).

For the molecule `OCc1cc(C(O)CNCCCCCCOCCCCc2ccccc2)ccc1O` (centres undefined), the vessel count % control was 126% (inactive). The figure for `CCCC(=O)NCCc1c2n(c3ccc(OC)cc13)Cc1ccccc1-2` is 111% (inactive). Consider `Cc1ccc2[nH]c(O)c(-c3[nH]c4ccc(Br)cc4c3N=O)c2c1`, for which the vessel count % control is 33.9%. Regarding `Nc1ncnc2c1ncn2[C@@H]1O[C@H](C(=O)NC2CC2)[C@H](O)C1O` (some centres undefined), the vessel count % control is 102% (inactive). For `N[C@@H](CC(=O)O)C(=O)O`, the vessel count % control was 94.7% (inactive). Turning to `NCCNC(=O)c1ncsc1-c1cccc(F)c1`, the vessel count % control is 102% (inactive).

Regarding `CN1C2CCC1CC(OC(c1ccccc1)c1ccccc1)C2` (centres undefined), the vessel count % control was 91.6% (inactive).

Consider `CC1(C)CCC=[N+]1[O-]`, for which the vessel count % control was 85.7% (inactive). Turning to `N[C@@H](Cc1cnc[nH]1)C(=O)O`, the vessel count % control was 107% (inactive).

Take `NC(=NCc1ccc(Cl)c(Cl)c1)NC(=O)c1nc(Cl)c(N)nc1N`: the vessel count % control was 108% (inactive). For `Cc1ccc(C(=O)Nc2ccc(S(=O)(=O)O)c3cc(S(=O)(=O)O)cc(S(=O)(=O)O)c23)cc1NC(=O)c1cccc(NC(=O)Nc2cccc(C(=O)Nc3cc(C(=O)Nc4ccc(S(=O)(=O)O)c5cc(S(=O)(=O)O)cc(S(=O)(=O)O)c45)ccc3C)c2)c1` the value was 119% (inactive); for `CC(CN(C)C)CN1c2ccccc2CCc2ccccc21` (centres undefined), 97.1% (inactive); for `CN(C)CC/C=C1\c2ccccc2COc2ccccc21`, 97.3% (inactive).

For `NC(N)=NCCC[C@H](N)C(=O)O`, the vessel count % control is 94.3% (inactive). As to `CC(N)=O`, the vessel count % control is 108% (inactive). As to `O=[N+]([O-])c1cc(O)c(O)c([N+](=O)[O-])c1`, the vessel count % control is 89.3% (inactive). With `CCCn1c(=O)c2[nH]c(-c3ccc(S(=O)(=O)O)cc3)nc2n(CCC)c1=O`, the vessel count % control is 70.2% (inactive).

For `CCN1CCC[C@H]1CNC(=O)c1cc(S(N)(=O)=O)ccc1OC`, the vessel count % control was 89.7% (inactive). For `CC(=O)N[C@@H](Cc1c[nH]c2ccccc12)C(=O)OCc1cc(C(F)(F)F)cc(C(F)(F)F)c1`, the vessel count % control was 70.4% (inactive). Consider `CCOC(=O)Nc1ccc(NCc2ccc(F)cc2)nc1N`, for which the vessel count % control is 83.6% (inactive). Turning to `C/C=C(/C)C(=O)O[C@H]1C(C)=C2[C@H]([C@@H]1OC(=O)CCCCCCC)[C@@](C)(OC(C)=O)C[C@H](OC(=O)CCC)[C@@]1(O)[C@H]2OC(=O)[C@@]1(C)O`, the vessel count % control was 0% (inactive).

Turning to `Clc1ccc(Cn2c(CN3CCCC3)nc3ccccc32)cc1`, the vessel count % control is 81.8% (inactive). Turning to `CC[N+](C)(C)Cc1ccccc1Br`, the vessel count % control was 116% (inactive). Take `C#CCOC(=O)C1=CCCN(C)C1`: the vessel count % control was 106% (inactive). Consider `CN1C2CC(OC(=O)[C@H](CO)c3ccccc3)CC1C1OC12` (some centres undefined), for which the vessel count % control was 79.7% (inactive). On to `CCCn1c(=O)c2c(ncn2C)n(CCC)c1=O`, for which the vessel count % control is 98.7% (inactive). As for `COC(=O)[C@H](NC(=O)c1cc(-c2ccccc2)nc2ccccc12)c1ccccc1`, the vessel count % control was 97.2% (inactive). For `Cc1nc2c(OCc3ccccc3)cccn2c1CC#N` the value was 120% (inactive); for `CP(=O)(O)CCCN`, 76.1% (inactive); for `CC1COc2c(N3CCN(C)CC3)c(F)cc3c(=O)c(C(=O)O)cn1c23` (centres undefined), 74.9% (inactive).

`COC(=O)C1=C(C)NC(C)=C(C(=O)OC)C1c1ccccc1[N+](=O)[O-]`: the vessel count % control is 112% (inactive).

Take `CCNC(=O)[C@H]1O[C@@H](n2cnc3c(N)nc(NCCc4ccc(CCC(=O)O)cc4)nc32)C(O)[C@H]1O` (some centres undefined): the vessel count % control is 93.7% (inactive). With `O=C(O)CCCCCC[C@H]1C(=O)NC(=O)N1CC[C@@H](O)C1CCCCC1`, the vessel count % control is 93.1% (inactive). For `CC(N)C(=O)OC(C)(C)Cc1ccc(Cl)cc1` (centres undefined) the value was 112% (inactive); for `CNC[C@H](O)c1ccc(O)c(O)c1`, 94% (inactive); for `Cn1c(=O)c2[nH]c(-c3ccccc3)nc2n(C)c1=O`, 117% (inactive).

With `NS(=O)(=O)c1cc2c(cc1Cl)NC(C1CC3C=CC1C3)NS2(=O)=O` (centres undefined), the vessel count % control is 107% (inactive). For `CCO/C([O-])=N/c1c[n+](N2CCOCC2)no1`, the vessel count % control is 100% (inactive). For `Cn1cnc2c1c(=O)[nH]c(=O)n2C` the value was 118% (inactive). On to `Oc1ccc2c3c1O[C@H]1c4[nH]c5ccccc5c4C[C@@]4(O)C(C2)N(CC2CC2)CCC314` (some centres undefined), for which the vessel count % control is 115% (inactive). For the molecule `NCCc1c[nH]c2ccccc12`, the vessel count % control was 118% (inactive).
